{"source": "patent US10150772B2", "about": "“Crystalline forms of PARP inhibitors” (priority 2014, dated 2018)", "key": {"[1]": {"type": "physicochemical", "conditions": "for Stability to the test conditions (in words): 28 day test period", "description": "Identity, Assay, and Purity by HPLC\nTesting was performed on a calibrated and validated Agilent 1200 Rapid Resolution High Performance Liquid Chromatography (HPLC) system designated LC-0430-AD or LC-418-1D. The system comprises a binary SL pump, degasser, high performance autosampler SL with a fraction collector, thermostated column compartment with a 2 valve column switcher, and a DAD SL detector. All standard solutions and samples were prepared in Class A glass volumetric flasks and were placed in autosampler vials. Standard weighings were done using a calibrated Mettler analytical balance. The sample preparations were centrifuged using an Eppendorf microcentrifuge. The primary chromatography data was acquired and integrated using Empower 2 software. Microsoft Office Excel 2003 was used for the calculation of results.\nSolid State Stability of Salts at 40° C. and 75% Humidity:\nSamples of the form to be studied (15-20 mg) were weighed into standard 1.5 mL HPLC vials (32×11.6 mm) and stored uncapped for 0, 7, 14 and 28 days in a 40° C. and 75% RH stability chamber. Samples were removed on the indicated day and capped. Measurements of XRPD, DSC, TGA and HPLC Identity by Purity and Assay measurements were completed on each time point sample."}, "[2]": {"experiment": "Dynamic vapor sorption (DVS), water sorption", "type": "physicochemical", "conditions": "for DVS sorption behaviour (in words) / Total uptake (moisture): 25° C.; for Total uptake (moisture): entire RH range", "description": "Dynamic Vapor Sorption (DVS):\nDVS experiments have been carried out using the DVS-HT instrument (Surface Measurement Systems, London, UK). This instrument measures the uptake and loss of vapor gravimetrically using a recording ultra-microbalance with a mass resolution of ±0.1 μg. The vapor partial pressure (±1.0%) around the sample is controlled by mixing saturated and dry carrier gas streams using electronic mass flow controllers. The desired temperature is maintained at ±0.1° C. The samples (1-10 mg) were placed into the DVS-HT and DVS-1 instruments at the desired temperature.\nThe sample was loaded and unloaded at 40% RH and 25° C. (typical room conditions). A moisture sorption isotherm was performed as outlined below (2 scans giving 1 complete cycle). The software uses a least squares minimization procedure together with a model of the mass relaxation, to predict an asymptotic value. The measured mass equilibration value must be within 2% of that predicted by the software before proceeding to the next % RH value. The minimum equilibration time was set to 1 hour and the maximum to 4 hours."}, "[3]": {"experiment": "Estimation of water solubility", "type": "physicochemical", "description": "Estimation of Water Solubility: Ten mg portions of the salt forms to be studied were weighed into a standard 1.5 mL HPLC vial (32×11.6 mm). […] An estimation of solubility was based on the volume of water necessary to dissolve the known weight of sample."}, "[4]": {"conditions": "40° C. and 75% RH, day 14, HPLC"}, "[5]": {"conditions": "40° C. and 75% RH, day 28, HPLC"}, "[6]": {"conditions": "initial, before 40° C. and 75% RH stability testing"}}, "note": "Counter-ions that a name gives are not always drawn. Like-named read-outs stand apart in the source and are kept apart here."}
{"smiles": "COc1cccc2[nH]c3c4c(c5c(c3c12)C(=O)N(CN1CCN(C)CC1)C5=O)CCC4", "note": "[L-Malate Salt, Form A1]", "values": [{"measurement": "Stability to the test conditions (in words)", "setting": "[1]; 40° C. and 75% RH", "result": "stable to the test conditions"}, {"measurement": "HPLC Purity", "setting": "[1]; 40° C. and 75% RH, day 0", "result": 99.5, "unit": "%"}, {"measurement": "TGA", "setting": "[1]; 40° C. and 75% RH, day 0", "result": 0.1, "unit": "%"}, {"measurement": "COMPOUND A Assay", "setting": "[1]; 40° C. and 75% RH, day 0, HPLC", "result": 69.9, "unit": "%"}, {"measurement": "COMPOUND B Assay", "setting": "[1]; 40° C. and 75% RH, day 0, HPLC", "result": 0.2, "unit": "%"}, {"measurement": "HPLC Purity", "setting": "[1]; 40° C. and 75% RH, day 7", "result": 99.3, "unit": "%"}, {"measurement": "TGA", "setting": "[1]; 40° C. and 75% RH, day 7", "result": 0.2, "unit": "%"}, {"measurement": "XRPD", "setting": "[1]; 40° C. and 75% RH, day 7", "result": "No change"}, {"measurement": "COMPOUND A Assay", "setting": "[1]; 40° C. and 75% RH, day 7, HPLC", "result": 71.8, "unit": "%"}, {"measurement": "COMPOUND B Assay", "setting": "[1]; 40° C. and 75% RH, day 7, HPLC", "result": 0.4, "unit": "%"}, {"measurement": "HPLC Purity", "setting": "[1]; 40° C. and 75% RH, day 14", "result": 98.8, "unit": "%"}, {"measurement": "TGA", "setting": "[1]; 40° C. and 75% RH, day 14", "result": 0.8, "unit": "%"}, {"measurement": "XRPD", "setting": "[1]; 40° C. and 75% RH, day 14", "result": "No change"}, {"measurement": "COMPOUND A Assay", "setting": "[1]; [4]", "result": 72.0, "unit": "%"}, {"measurement": "COMPOUND B Assay", "setting": "[1]; [4]", "result": 0.5, "unit": "%"}, {"measurement": "HPLC Purity", "setting": "[1]; 40° C. and 75% RH, day 28", "result": 98.4, "unit": "%"}, {"measurement": "TGA", "setting": "[1]; 40° C. and 75% RH, day 28", "result": 0.3, "unit": "%"}, {"measurement": "XRPD", "setting": "[1]; 40° C. and 75% RH, day 28", "result": "No change"}, {"measurement": "COMPOUND A Assay", "setting": "[1]; [5]", "result": 71.7, "unit": "%"}, {"measurement": "COMPOUND B Assay", "setting": "[1]; [5]", "result": 0.8, "unit": "%"}, {"measurement": "DVS sorption behaviour (in words)", "setting": "[2]; DVS", "result": "very little water absorption during the first cycle from 40% RH to 70% RH"}, {"measurement": "Total uptake (moisture)", "setting": "[2]; DVS", "result": "~2", "unit": "%"}]}
{"smiles": "COc1cccc2[nH]c3c4c(c5c(c3c12)C(=O)N(CN1CCN(C)CC1)C5=O)CCC4", "note": "[L-Pyroglutamate Salt, Form A1]", "values": [{"measurement": "Stability to the test conditions (in words)", "setting": "[1]; 40° C. and 75% RH", "result": "stable over a 28 day test period, except for a slow increase in Compound B content"}, {"measurement": "DVS sorption behaviour (in words)", "setting": "[2]; DVS", "result": "massive uptake in moisture"}, {"measurement": "Total uptake (moisture)", "setting": "[2]; DVS", "result": "~27", "unit": "%"}, {"measurement": "Water absorption, first cycle", "setting": "[2]; DVS, RH range of 40-75%", "result": "~2", "unit": "%"}]}
{"smiles": "COc1cccc2[nH]c3c4c(c5c(c3c12)C(=O)N(CN1CCN(C)CC1)C5=O)CCC4.O=C(O)C[C@H](O)C(=O)O", "note": "[L-malate (2 Eq.)]", "values": [{"measurement": "COMPOUND B After 40/75", "setting": "[1]; after 40° C. and 75% RH stability testing", "result": 1.2, "unit": "%"}, {"measurement": "COMPOUND A Initial", "setting": "[1]; [6]", "result": 71.3, "unit": "%"}, {"measurement": "COMPOUND B Initial", "setting": "[1]; [6]", "result": 0.2, "unit": "%"}, {"measurement": "TGA", "setting": "[1]; initial, comparison of salts", "result": 0.1, "unit": "%"}, {"measurement": "DVS", "setting": "[2]; water sorption reversible or irreversible", "result": "Irreversible"}, {"measurement": "Est. Water Solubility", "setting": "[3]", "result": ">100", "unit": "mg/mL"}]}
